As usually defined, the pIC50 is the IC50 on a negative log10 scale, so that one unit is a factor of ten.

pIC50: −log10 of the molar value. Structures can show the parent of a compound that is named as a salt.

We go through 21 compounds from patent US9045445B2, “Glycine transporter-1 inhibitors, methods of making them, and uses thereof” (Albany Molecular Research, Inc., priority 2010, dated 2015).

In this assay the target is T1, glycine transporter-1 (GlyT-1) (Homo sapiens, UniProt P48067).
T1 construct: JAR cells (ATCC#HTB-144), which endogenously express GlyT-1; host or cells: JAR human choriocarcinoma cells
T1 sequence (P48067 1-706): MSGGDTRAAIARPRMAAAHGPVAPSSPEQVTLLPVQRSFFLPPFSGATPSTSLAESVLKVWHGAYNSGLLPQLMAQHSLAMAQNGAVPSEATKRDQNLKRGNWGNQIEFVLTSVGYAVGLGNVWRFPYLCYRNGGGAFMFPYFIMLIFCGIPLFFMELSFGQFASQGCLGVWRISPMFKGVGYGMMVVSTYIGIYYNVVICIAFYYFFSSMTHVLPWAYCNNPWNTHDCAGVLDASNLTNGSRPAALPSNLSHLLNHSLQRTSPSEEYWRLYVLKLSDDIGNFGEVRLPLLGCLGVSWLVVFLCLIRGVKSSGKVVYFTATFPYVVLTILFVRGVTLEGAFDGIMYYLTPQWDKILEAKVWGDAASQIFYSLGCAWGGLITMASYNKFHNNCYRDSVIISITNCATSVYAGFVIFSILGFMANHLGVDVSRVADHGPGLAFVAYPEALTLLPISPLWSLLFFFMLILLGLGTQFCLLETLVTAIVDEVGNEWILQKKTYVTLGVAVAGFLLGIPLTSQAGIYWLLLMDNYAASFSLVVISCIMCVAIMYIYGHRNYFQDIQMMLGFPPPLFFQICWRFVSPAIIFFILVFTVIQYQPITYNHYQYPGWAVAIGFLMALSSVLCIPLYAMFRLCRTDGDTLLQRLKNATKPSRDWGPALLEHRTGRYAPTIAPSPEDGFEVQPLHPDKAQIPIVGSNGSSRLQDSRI
The experiment in a line: [14C]glycine uptake assay in JAR cells endogenously expressing GlyT-1 (scintillation proximity). It is filed as cell-based. The following applies: JAR cells, [14C]glycine 5 μM, 3 hour incubation; read-out: GlyT-1 IC50. The protocol:
The inhibitory activity of compounds of the invention against the glycine transporter-1 (GlyT-1) can be determined by the following scintillation proximity assay. The potency of each compound was assessed in inhibiting the uptake of radiolabeled glycine ([^14C]glycine) using the human choriocarcinoma cell line, JAR cells (ATCC#HTB-144), which endogenously express GlyT-1. In brief, 50,000 JARS cells were plated per well of tissue culture treated 96-well Cytostar-T plate (PerkinElmer) in RPMI media supplemented with 10% heat inactivated FBS and allowed to attach overnight at 37° C. and 5% CO2. Compounds were serially diluted 3-fold in DMSO generating a nine (9) data point response curve for each compound. Two replicates were performed per determination. The compounds were then diluted into Uptake Buffer (10 mM Hepes, 120 mM NaCl, 2 mM KCl, 1 mM CaCl2 and 1 mM MgCl2, 5 mM Alanine, pH 7.4) with a final DMSO concentration of 0.75% (v/v). Following the overnight incubation, the media was replaced with Uptake Buffer in the presence or absence of diluted compound and pre-incubated at room temperature for 10 minutes prior to the addition of [^14C]glycine at a final concentration of 5 μM. Following a 3 hour incubation period at 37° C. and 5% CO2, the plates were sealed and placed at room temperature in the dark for 15 minutes prior to quantification of incorporated radioactivity using a MicroBeta Trilux scintillation plate reader (PerkinElmer). Data were fit into a four-parameter model to determine the inhibitor concentration at half-maximal response (IC50). The assay window was established by control wells incubated with [^14C]glycine in the presence or absence of 10 mM non-labeled glycine. A dose response curve for a synthesized reference standard was generated on every plate as a positive control.
Take `Cn1cc(S(=O)(=O)N2CCN(C3(CNC(=O)c4ccc(C(F)(F)F)cc4C(F)(F)F)CCOCC3)CC2)nn1` [compound 276, N-((4-(4-(1-Methyl-1H-1,2,3-triazol-4-ylsulfonyl)piperazin-1-yl)tetrahydro-2H-pyran-4-yl)methyl)-2,4-bis(trifluoromethyl) benzamide Hydrochloride]: the pIC50 was 8.15.

For the compound `CCCS(=O)(=O)N1CCN(C2(CNC(=O)c3c(C)cccc3Cl)CCC(F)(F)CC2)CC1` [compound 155, 2-Chloro-N-((4,4-difluoro-1-(4-(propylsulfonyl)piperazin-1-yl)cyclohexyl)methyl)-6-methylbenzamide Hydrochloride], the pIC50 was 7.59.

For the compound `Cn1cc(S(=O)(=O)N2CCN(C3(CNC(=O)c4c(F)cc(Cl)cc4Cl)CCC(F)(F)CC3)CC2)nn1` [compound 241, 2,4-Dichloro-N-((4,4-difluoro-1-(4-(1-methyl-1H-1,2,3-triazol-4-ylsulfonyl)piperazin-1-yl)cyclohexyl)methyl)-6-fluorobenzamide Hydrochloride], the negative logarithm of the IC50 (pIC50) is 9.00.

On to `CCCS(=O)(=O)N1CCN(C2(CNC(=O)c3ccccc3OC(F)F)CCC(F)(F)CC2)CC1` [compound 142, N-((4,4-Difluoro-1-(4-(propylsulfonyl)piperazin-1-yl)cyclohexyl)methyl)-2-(difluoromethoxy) benzamide Hydrochloride], for which the pIC50 is 6.80.

For `CCS(=O)(=O)N1CCN(C2(CNC(=O)c3c(F)cc(Cl)cc3Cl)CCC(F)(F)CC2)CC1` [compound 210, 2,4-Dichloro-N-((1-(4-(ethylsulfonyl)piperazin-1-yl)-4,4-difluorocyclohexyl)methyl)-6-fluorobenzamide Hydrochloride], the pIC50 is 7.14.

For `Cc1cc(Cl)ccc1C(=O)NCC1(N2CCN(S(=O)(=O)c3cn(C)cn3)CC2)CCC(F)(F)CC1` [compound 168, 4-Chloro-N-((4,4-difluoro-1-(4-(1-methyl-1H-imidazol-4-ylsulfonyl)piperazin-1-yl)cyclohexyl)methyl)-2-methylbenzamide Hydrochloride], the negative-log IC50 (pIC50) was 7.82.

In the case of `CCCS(=O)(=O)N1CCN(C2(CNC(=O)c3cccc(C)c3)CCCCC2)CC1` [compound 37, 3-Methyl-N-((1-(4-(propylsulfonyl)piperazin-1-yl)cyclohexyl)methyl) benzamide Hydrochloride], the pIC50 is 5.94.

On to `CCCS(=O)(=O)N1CCN(C2(CNC(=O)c3c(F)cc(Cl)cc3Cl)CCC(F)(F)CC2)CC1` [compound 255, 2,4-Dichloro-N-((4,4-difluoro-1-(4-(propylsulfonyl)piperazin-1-yl)cyclohexyl)methyl)-6-Fluorobenzamide Hydrochloride], for which the pIC50 was 7.85.

For the compound `CCS(=O)(=O)N1CCN(C2(CNC(=O)c3c(F)cc(OC)cc3F)CCC(F)(F)CC2)CC1` [compound 216, N-((1-(4-(Ethylsulfonyl)piperazin-1-yl)-4,4-difluorocyclohexyl)methyl)-2,6-difluoro-4-methoxybenzamide Hydrochloride], the pIC50 is 5.89.

Regarding `CCCS(=O)(=O)N1CCN(C2(CNC(=O)c3ccc(F)cc3C)CCC(F)(F)CC2)CC1` [compound 145, N-((4,4-Difluoro-1-(4-(propylsulfonyl)piperazin-1-yl)cyclohexyl)methyl)-4-fluoro-2-methylbenzamide Hydrochloride], the pIC50 is 7.28.

Take `CCS(=O)(=O)N1CCN(C2(CNC(=O)c3c(F)ccc(Cl)c3F)CCC(F)(F)CC2)CC1` [compound 213, 3-Chloro-N-((1-(4-(ethylsulfonyl)piperazin-1-yl)-4,4-difluorocyclohexyl)methyl)-2,6-difluorobenzamide Hydrochloride]: the pIC50 was 6.06.

As for `Cn1cnc(S(=O)(=O)N2CCN(C3(CNC(=O)c4ccc(C(F)(F)F)cc4Cl)CCC(F)(F)CC3)CC2)c1` [compound 171, N-((4,4-Difluoro-1-(4-(1-methyl-1H-imidazol-4-ylsulfonyl)piperazin-1-yl)cyclohexyl)methyl)-2-chloro-4-(trifluoromethyl)benzamide Hydrochloride], the negative logarithm of the IC50 (pIC50) was 8.70.

For `CCCS(=O)(=O)N1CCN(C2(CNC(=O)c3ccc(Cl)cc3F)CCC(F)(F)CC2)CC1` [compound 143, 4-Chloro-N-((4,4-difluoro-l-(4-(propylsulfonyl)piperazin-1-yl)cyclohexyl)methyl)-2-fluorobenzamide Hydrochloride], the pIC50 is 6.86.

Turning to `Cn1cc(S(=O)(=O)N2CCN(C3(CNC(=O)c4ccc(F)cc4F)CCC(F)(F)CC3)CC2)nn1` [compound 229, N-((4,4-Difluoro-1-(4-(1-methyl-1H-1,2,3-triazol-4-ylsulfonyl)piperazin-1-yl)cyclohexyl)methyl)-2,4-difluorobenzamide Hydrochloride], the pIC50 is 8.00.

Take `CCCS(=O)(=O)N1CCN(C2(CNC(=O)c3c(Cl)cccc3OC)CCC(F)(F)CC2)CC1` [compound 152, 2-Chloro-N-((4,4-difluoro-1-(4-(propylsulfonyl)piperazin-1-yl)cyclohexyl)methyl)-6-methoxybenzamide Hydrochloride]: the pIC50 is 7.47.

As to `CC(O)CS(=O)(=O)N1CCN(C2(CNC(=O)c3ccc(C(F)(F)F)cc3Cl)CCC(F)(F)CC2)CC1` (single isomer, unassigned; enantiomer b) [compound 279, (Enantiomer B)-2-Chloro-N-((4,4-difluoro-1-(4-(2-hydroxypropylsulfonyl)piperazin-1-yl)cyclohexyl)methyl)-4-(trifluoromethyl) benzamide Hydrochloride], the pIC50 was 7.17.

Take `Cn1cnc(S(=O)(=O)N2CCN(C3(CNC(=O)c4ccccc4F)CCC(F)(F)CC3)CC2)c1` [compound 175, N-((4,4-Difluoro-1-(4-(1-methyl-1H-imidazol-4-ylsulfonyl)piperazin-1-yl)cyclohexyl)methyl)-2-fluorobenzamide Hydrochloride]: the pIC50 is 7.24.

With `Cc1cccc(Cl)c1C(=O)NCC1(N2CCN(S(=O)(=O)c3cn(C)cn3)CC2)CCC(F)(F)CC1` [compound 181, 2-Chloro-N-((4,4-difluoro-1-(4-(1-methyl-1H-imidazol-4-ylsulfonyl)piperazin-1-yl)cyclohexyl)methyl)-6-methylbenzamide Hydrochloride], the pIC50 is 8.70.

Consider `CCCS(=O)(=O)N1CCN(C2(CNC(=O)c3c(F)cccc3F)CCCCC2)CC1` [compound 16, 2,6-Difluoro-N-((1-(4-(propylsulfonyl)piperazin-1-yl)cyclohexyl)methyl) benzamide Hydrochloride], for which the pIC50 is 7.64.

Regarding `Cc1cccc(C)c1C(=O)NCC1(N2CCN(S(=O)(=O)c3cn(C)cn3)CC2)CCC(F)(F)CC1` [compound 164, N-((4,4-Difluoro-1-(4-(1-methyl-1H-imidazol-4-ylsulfonyl)piperazin-1-yl)cyclohexyl)methyl)-2,6-dimethylbenzamide Hydrochloride], the negative-log IC50 (pIC50) is 8.40.

As to `CCCS(=O)(=O)N1CCN(C2(CNC(=O)c3ccc(Cl)c(Cl)c3)CCCC2)CC1` [compound 76, 3,4-Dichloro-N-((1-(4-(propylsulfonyl)piperazin-1-yl)cyclopentyl)methyl) benzamide Hydrochloride], the pIC50 is 5.74.
